Key:
HFpEF model mice [1] = experiment: Pressure-volume loop analysis with conductance catheter in HFpEF model mice, Example 1; format: in vivo; settings: Example 1, FIG. 4; tamibarotene 3 mg/kg, peretinoin 0.3 mg/body, oral gavage once a day, five weeks
Description: (§1) HFpEF model mice are generated by the method reported by Schiattarella et al. (Nature. 568 (7752): 351-356. 2019). Specifically, male mice at an age of 8 to 10 weeks are given High Fat Diet (Rodent Diet with 60% kcal % fat, D12492, Research Diets Inc.) and drinking water containing a dissolved nitric oxide synthase inhibitor (No-nitro-L-arginine methyl ester hydrochloride (L-NAME), N5751, Sigma) (at a concentration of 0.5 g/L), and kept for five weeks. Various measurements are performed to confirm the establishment of an HFpEF model.
The following drugs are administered to mouse groups while mice are continued to be given the high-fat diet and the drinking water containing the dissolved nitric oxide synthase inhibitor. AM80 (Cat. No. 3507, TOCRIS) is orally administered to tamibarotene administration group via oral gavage at a single dose of 3 mg/kg once a day. Peretinoin (Cat. No. HY-100008, MedChemExpress) is orally administered to peretinoin administration group via oral gavage at a single dose of 0.3 mg/body once a day. DMSO as a vehicle is orally administered to control group via oral gavage once a day. Administration is continued for five weeks, and various measurements are performed five weeks after the initial drug administration. […]

HFpEF model mice [2] = experiment: Diastolic function of HFpEF model mice, overall conclusion from Examples 1 and 2; format: in vivo; settings: summary of Examples 1 and 2
Description: as §1
The following drugs are administered to mouse groups while mice are continued to be given the high-fat diet and the drinking water containing the dissolved nitric oxide synthase inhibitor. […]
Transthoracic echocardiography is performed on mice under inhalational anesthesia with isoflurane. Transmitral flow velocity pattern (TMF) is measured by pulsed Doppler echocardiography using vevo 3100 (FUJIFILM VisualSonics) equipped with a 30 MHz probe for small animals (MX-400) to determine the early diastolic inflow velocity pattern (E-wave). Early diastolic mitral annular velocity (e′) is measured by tissue Doppler echocardiography. […] LV end-systolic diameter and LV end-diastolic diameter are measured by M-mode echocardiography to calculated an LV ejection fraction (EF %). […]

HFpEF model mice [3] = experiment: Transthoracic echocardiography in HFpEF model mice, Example 2; format: in vivo; settings: tamibarotene 3 mg/kg, peretinoin 10 mg/kg, oral gavage once a day, five weeks; for left ventricular ejection fraction before and after drug administration: Example 2, FIG. 6; for E/e′ ratio after completion of drug administration compared with before start: Example 2, FIG. 7
Description: as §1
(§2) The following drugs are administered to mouse groups while mice are continued to be given the high-fat diet and the drinking water containing the dissolved nitric oxide synthase inhibitor. AM80 (Cat. No. 3507, TOCRIS) is orally administered to tamibarotene administration group via oral gavage at a single dose of 3 mg/kg once a day. Peretinoin (Cat. No. HY-100008, MedChemExpress) is orally administered to peretinoin administration group via oral gavage at a single dose of 10 mg/kg once a day. DMSO as a vehicle is orally administered to control group via oral gavage once a day. Administration is continued for five weeks, and various measurements are performed five weeks after the initial drug administration.
(§3) Transthoracic echocardiography is performed on mice under inhalational anesthesia with isoflurane. Transmitral flow velocity pattern (TMF) is measured by pulsed Doppler echocardiography using vevo 3100 (FUJIFILM VisualSonics) equipped with a 30 MHz probe for small animals (MX-400) to determine the early diastolic inflow velocity pattern (E-wave). Early diastolic mitral annular velocity (e′) is measured by tissue Doppler echocardiography. The transmitral E velocity is divided by the e′ velocity to calculate an E/e′ ratio. LV end-systolic diameter and LV end-diastolic diameter are measured by M-mode echocardiography to calculated an LV ejection fraction (EF %).

HFpEF model mice [4] = experiment: Transthoracic echocardiography in HFpEF model mice, Example 1; format: in vivo; settings: tamibarotene 3 mg/kg, peretinoin 0.3 mg/body, oral gavage once a day, five weeks; for left ventricular ejection fraction before and after drug administration: Example 1, FIG. 2; for E/e′ ratio after completion of drug administration compared with before start: Example 1, FIG. 3
Description: as §1
The following drugs are administered to mouse groups while mice are continued to be given the high-fat diet and the drinking water containing the dissolved nitric oxide synthase inhibitor. AM80 (Cat. No. 3507, TOCRIS) is orally administered to tamibarotene administration group via oral gavage at a single dose of 3 mg/kg once a day. Peretinoin (Cat. No. HY-100008, MedChemExpress) is orally administered to peretinoin administration group via oral gavage at a single dose of 0.3 mg/body once a day. DMSO as a vehicle is orally administered to control group via oral gavage once a day. Administration is continued for five weeks, and various measurements are performed five weeks after the initial drug administration.
as §3

HFpEF model mice [5] = experiment: Heart weight/tibia length measurement in HFpEF model mice, Example 2; format: in vivo; settings: Example 2, FIG. 5; tamibarotene 3 mg/kg, peretinoin 10 mg/kg, oral gavage once a day, five weeks; compared among groups incl. DMSO control
Description: as §1, §2
Mice are euthanized after the catheterization, and the heart is harvested for weight measurement. […]

HFpEF model mice [6] = experiment: Masson's trichrome staining of heart tissue of HFpEF model mice, Example 2; format: in vivo; settings: Example 2, FIG. 9; tamibarotene 3 mg/kg, peretinoin 10 mg/kg, oral gavage once a day, five weeks; 400-fold
Description: as §1
as §2, with “Administration is continued for five weeks, and various measurements are performed five weeks after the initial drug administration.” left out
Tissue specimens are prepared from the harvested heart, and stained with Masson's trichrome staining. The tissue fibrosis is photographed, and the images are analyzed using Image J for assessment.

HFpEF model mice [7] = experiment: Pressure-volume loop analysis with conductance catheter in HFpEF model mice, Example 2; format: in vivo; settings: Example 2, FIG. 8; tamibarotene 3 mg/kg, peretinoin 10 mg/kg, oral gavage once a day, five weeks
Description: as §1
as §2, with “administration. […]” for “administration.”

HFpEF patients = settings: clinical studies, Anker S et al., N Engl J Med 2021; cited from earlier work

| Structure (SMILES) | stiffness constant β compared with control group (HFpEF model mice [1]) | effect on the diastolic function of the HFpEF model mice (HFpEF model mice [2]) | left ventricular ejection fraction before and after drug administration (HFpEF model mice [3]) | E/e′ ratio after completion of drug administration compared with before start (HFpEF model mice [3]) | left ventricular ejection fraction before and after drug administration (HFpEF model mice [4]) | E/e′ ratio after completion of drug administration compared with before start (HFpEF model mice [4]) | heart weight/tibia length ratio after completion of drug administration (HFpEF model mice [5]) | tissue fibrosis (fibrosis area, high-power field) compared with control group (HFpEF model mice [6]) | stiffness constant β compared with control group (HFpEF model mice [7]) | efficacy for HFpEF patients (HFpEF patients) |
| --- | --- | --- | --- | --- | --- | --- | --- | --- | --- | --- |
| CC(C)=CCC/C(C)=C/CC/C(C)=C/C=C/C(C)=C/C(=O)O [peretinoin] | reduced | improving effect | no difference | significantly reduced | no difference | significantly reduced | no significant difference | significantly reduced | significantly reduced |  |
| CC1(C)CCC(C)(C)c2cc(NC(=O)c3ccc(C(=O)O)cc3)ccc21 [tamibarotene] | reduced | improving effect | no difference | significantly reduced | no difference | significantly reduced | no significant difference | significantly reduced | significantly reduced |  |
| OC[C@H]1O[C@@H](c2ccc(Cl)c(Cc3ccc(O[C@H]4CCOC4)cc3)c2)[C@H](O)[C@@H](O)[C@@H]1O [Empagliflozin] |  |  |  |  |  |  |  |  |  | effective |

— patent US20250295620A1, “PHARMACEUTICAL COMPOSITION FOR TREATMENT OF HEART FAILURE WITH DIASTOLIC DYSFUNCTION” (NATIONAL UNIVERSITY CORPORATION TOKAI NATIONAL HIGHER …, priority 2022, published 2025)
